In patent US20240261292A1, “COMBINATION THERAPIES” (Janssen Pharmaceutica NV, priority 2021, published 2024):
Where a name gives a salt, the structure may show the parent alone.

How the values were obtained:
OCI-AML3 tumors = test: Efficacy study in disseminated OCI-AML3 model; format: in vivo, SCID beige mice
Protocol: Day 0 is the day of tumor cell implantation and study initiation.
Median survival was determined utilizing Kaplan-Meier survival analysis.

[1] = Mouse PK (in vivo T1/2 and oral bioavailability); settings: fasted male CD-1 mice, single IV 0.5 or 1.0 mg/kg; formulating agent: A HP-β-CD, A3 Pyrogen free water
Protocol: 3) Mouse PK (In Vivo T1/2 and Oral Bioavailability)
In vivo pharmacokinetics (PK) were assessed in fasted male CD-1 mice (age 6-8 weeks) following a single intravenous (IV, 0.5 or 1.0 mg/kg administered at 2.5 ml/kg) or oral (PO, 5 mg/kg administered at 10 ml solution/kg) dose of test article formulated in a 20% (w:vol) HP-β-CD solution or in Pyrogen free water.
Plasma and/or whole blood samples were collected from the dorsal metatarsal vein at desired timepoints via serial capillary microsampling (approx. 0.03 mL) using EDTA as an anticoagulant. Concentrations of compound in the plasma and blood samples were analyzed using a qualified LC-MS/MS method. In silico analysis of main pharmacokinetic parameters was performed using WinNonlin (Phoenix™, version 6.1) or similar software.)

In the case of `CCN(C(=O)c1cc(F)ccc1Oc1nncnc1N1CCC2(C1)CN([C@H](CCCN(C)CCOC)C(C)C)C2)C(C)C` [Compound A3, (R)-N-ethyl-5-fluoro-N-isopropyl-2-((5-(2-(6-((2-methoxyethyl) (methyl)amino)-2-methylhexan-3-yl)-2,6-diazaspiro[3.4]octan-6-yl)-1,2,4-triazin-6-yl)oxy) benzamide oxalate], the “median days of survival” value (OCI-AML3 tumors; 30 mg/kg PO daily for 28 days) is reported as 75.5 days, the “median days of survival” value (OCI-AML3 tumors; 50 mg/kg PO daily for 28 days) is reported as 58.5 days and the “median days of survival” value (OCI-AML3 tumors; 100 mg/kg PO daily for 28 days) is reported as 75 days. For the same molecule, the “In vivo T1/2 (IV)” value [1] was 9.0 h.
